Measurements from patent publication US12728177B2, “Disinfectant composition with rapid antiviral efficacy” (priority 2015, dated 2026).

Key:
[1] = test system: Bacteriophage Phi X174 (ATCC 13706-81); test: Virucidal infectivity (percent reduction in virus infectivity, E. coli outgrowth with resazurin dye); settings: 10-minute exposure;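 note: exposed phage diluted into broth, E. coli outgrowth followed 16-24 h at 37 °C by fluorescence rate, unexposed phage set as 100% signal, phage-free as 0%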
Procedure: Bacteriophage Phi X174 (ATCC 13706-81) was added 1:10 (−108 plaque forming units (PFU) per sample) into a solution containing the composition of interest. Following a 10-minute exposure, the sample was transferred 1:10 into Tryptic Soy Broth (TSB). Following 10 minutes in TSB, a second 1:10 dilution was completed into an outgrowth solution for the Phi X174 host (E. coli ATCC 13706) that contained TSB and a resazurin dye. E. coli outgrowth was then monitored at 37° C. for 16-24 hours and the rate of fluorescence development was calculated. The rate observed when Phi X174 was not exposed to any composition represented a 100% Phi X174 signal. The rate observed without Phi X174 present represented a “0% signal.” The rate obtained following Phi X174 exposure to a given composition was compared to the signal obtained with no exposure to calculate the “percent reduction in virus infectivity.”

[2] = 25° C.; cited from earlier work

Compound: O=C(O)CC(C(=O)O)S(=O)(=O)O (centres unmarked) [Sulfosuccinic Acid]
- reduction in virus infectivity, Primary Antiviral Agent without secondary agent (None) ([1]; Sulfosuccinic Acid 10-32 mM, no secondary agent): 0-75%
- pka1 (first acid dissociation constant) [2]: −1.65

Compound: Laureth-9 [Hetoxol LA-9]
- % Reduction, Secondary Antiviral Agent Alone ([1]; agent alone 6 mM): 0%
- % Reduction, Secondary Antiviral Agent Alone ([1]; agent alone 17 mM): 0%
- % Reduction, Secondary Antiviral Agent Alone ([1]; agent alone 50 mM): 0%
- % Reduction, Secondary Antiviral Agent Alone ([1]; agent alone 150 mM): 2%
- reduction in virus infectivity, in Combination with Maleic Acid (3 mM) ([1]; secondary agent 0.2 mM + Maleic Acid 3 mM): 9%
- reduction in virus infectivity, in Combination with Phosphonc Acid (50-150 mM) ([1]; secondary agent 0.2 mM + Phosphonc Acid 50-150 mM): 57%
- reduction in virus infectivity, in Combination with Sulfosuccinic Acid (10-32 mM) ([1]; secondary agent 0.2 mM + Sulfosuccinic Acid 10-32 mM): 5%
- reduction in virus infectivity, in Combination with Maleic Acid (3 mM) ([1]; secondary agent 1 mM + Maleic Acid 3 mM): 65%
- reduction in virus infectivity, in Combination with Phosphonc Acid (50-150 mM) ([1]; secondary agent 1 mM + Phosphonc Acid 50-150 mM): 62%
- reduction in virus infectivity, in Combination with Sulfosuccinic Acid (10-32 mM) ([1]; secondary agent 1 mM + Sulfosuccinic Acid 10-32 mM): 0%
- reduction in virus infectivity, in Combination with Maleic Acid (3 mM) ([1]; secondary agent 5 mM + Maleic Acid 3 mM): 0%
- reduction in virus infectivity, in Combination with Phosphonc Acid (50-150 mM) ([1]; secondary agent 5 mM + Phosphonc Acid 50-150 mM): 11%
- reduction in virus infectivity, in Combination with Sulfosuccinic Acid (10-32 mM) ([1]; secondary agent 5 mM + Sulfosuccinic Acid 10-32 mM): 0%
- reduction in virus infectivity, in Combination with Maleic Acid (3 mM) ([1]; secondary agent 27 mM + Maleic Acid 3 mM): 0%
- reduction in virus infectivity, in Combination with Phosphonc Acid (50-150 mM) ([1]; secondary agent 27 mM + Phosphonc Acid 50-150 mM): 10%
- reduction in virus infectivity, in Combination with Sulfosuccinic Acid (10-32 mM) ([1]; secondary agent 27 mM + Sulfosuccinic Acid 10-32 mM): 0%

Compound: CCCCCCCCCC[N+](C)(C)[O-] [Mackamine C-10, Decylamina oxide]
- % Reduction, Secondary Antiviral Agent Alone ([1]; agent alone 6 mM): 7%
- % Reduction, Secondary Antiviral Agent Alone ([1]; agent alone 18 mM): 4%
- % Reduction, Secondary Antiviral Agent Alone ([1]; agent alone 53 mM): 11%
- % Reduction, Secondary Antiviral Agent Alone ([1]; agent alone 183 mM): 30%
- reduction in virus infectivity, in Combination with Maleic Acid (3 mM) ([1]; secondary agent 30 mM + Maleic Acid 3 mM): 10%
- reduction in virus infectivity, in Combination with Phosphonc Acid (50-150 mM) ([1]; secondary agent 30 mM + Phosphonc Acid 50-150 mM): 0%
- reduction in virus infectivity, in Combination with Sulfosuccinic Acid (10-32 mM) ([1]; secondary agent 30 mM + Sulfosuccinic Acid 10-32 mM): 6%
- reduction in virus infectivity, in Combination with Maleic Acid (3 mM) ([1]; secondary agent 49 mM + Maleic Acid 3 mM): 35%
- reduction in virus infectivity, in Combination with Phosphonc Acid (50-150 mM) ([1]; secondary agent 49 mM + Phosphonc Acid 50-150 mM): 0%
- reduction in virus infectivity, in Combination with Sulfosuccinic Acid (10-32 mM) ([1]; secondary agent 49 mM + Sulfosuccinic Acid 10-32 mM): 0%
- reduction in virus infectivity, in Combination with Maleic Acid (3 mM) ([1]; secondary agent 59 mM + Maleic Acid 3 mM): 64%
- reduction in virus infectivity, in Combination with Phosphonc Acid (50-150 mM) ([1]; secondary agent 59 mM + Phosphonc Acid 50-150 mM): 0%
- reduction in virus infectivity, in Combination with Sulfosuccinic Acid (10-32 mM) ([1]; secondary agent 59 mM + Sulfosuccinic Acid 10-32 mM): 2%
- reduction in virus infectivity, in Combination with Maleic Acid (3 mM) ([1]; secondary agent 79 mM + Maleic Acid 3 mM): 62%
- reduction in virus infectivity, in Combination with Phosphonc Acid (50-150 mM) ([1]; secondary agent 79 mM + Phosphonc Acid 50-150 mM): 0%
- reduction in virus infectivity, in Combination with Sulfosuccinic Acid (10-32 mM) ([1]; secondary agent 79 mM + Sulfosuccinic Acid 10-32 mM): 0%

Compound: [Cl][Fe]([Cl])[Cl] [iron (iii) chloride]
- % Reduction, Secondary Antiviral Agent Alone ([1]; agent alone 8 mM): 3%
- % Reduction, Secondary Antiviral Agent Alone ([1]; agent alone 17 mM): 18%
- % Reduction, Secondary Antiviral Agent Alone ([1]; agent alone 33 mM): 21%
- % Reduction, Secondary Antiviral Agent Alone ([1]; agent alone 66 mM): 32%
- reduction in virus infectivity, in Combination with Maleic Acid (3 mM) ([1]; secondary agent 8 mM + Maleic Acid 3 mM): 0%
- reduction in virus infectivity, in Combination with Sulfosuccinic Acid (10-32 mM) ([1]; secondary agent 8 mM + Sulfosuccinic Acid 10-32 mM): 99%
- reduction in virus infectivity, in Combination with Maleic Acid (3 mM) ([1]; secondary agent 17 mM + Maleic Acid 3 mM): 23%
- reduction in virus infectivity, in Combination with Sulfosuccinic Acid (10-32 mM) ([1]; secondary agent 17 mM + Sulfosuccinic Acid 10-32 mM): 99%
- reduction in virus infectivity, in Combination with Maleic Acid (3 mM) ([1]; secondary agent 33 mM + Maleic Acid 3 mM): 0%
- reduction in virus infectivity, in Combination with Sulfosuccinic Acid (10-32 mM) ([1]; secondary agent 33 mM + Sulfosuccinic Acid 10-32 mM): 99%
- reduction in virus infectivity, in Combination with Maleic Acid (3 mM) ([1]; secondary agent 66 mM + Maleic Acid 3 mM): 0%
- reduction in virus infectivity, in Combination with Sulfosuccinic Acid (10-32 mM) ([1]; secondary agent 66 mM + Sulfosuccinic Acid 10-32 mM): 99%

Compound: CCCCCCCC/C=C\CCCCCCCC(=O)N(C)CCS(=O)(=O)[O-].[Na+] [Hostapon TPHC, Sodium Methyl Oleoyl Taurate]
- % Reduction, Secondary Antiviral Agent Alone ([1]; agent alone 25 mM): 0%
- % Reduction, Secondary Antiviral Agent Alone ([1]; agent alone 42 mM): 0%
- % Reduction, Secondary Antiviral Agent Alone ([1]; agent alone 50 mM): 0%
- % Reduction, Secondary Antiviral Agent Alone ([1]; agent alone 67 mM): 0%
- reduction in virus infectivity, in Combination with Maleic Acid (3 mM) ([1]; secondary agent 25 mM + Maleic Acid 3 mM): 0%
- reduction in virus infectivity, in Combination with Phosphonc Acid (50-150 mM) ([1]; secondary agent 25 mM + Phosphonc Acid 50-150 mM): 99%
- reduction in virus infectivity, in Combination with Sulfosuccinic Acid (10-32 mM) ([1]; secondary agent 25 mM + Sulfosuccinic Acid 10-32 mM): 99%
- reduction in virus infectivity, in Combination with Maleic Acid (3 mM) ([1]; secondary agent 42 mM + Maleic Acid 3 mM): 0%
- reduction in virus infectivity, in Combination with Phosphonc Acid (50-150 mM) ([1]; secondary agent 42 mM + Phosphonc Acid 50-150 mM): 96%
- reduction in virus infectivity, in Combination with Sulfosuccinic Acid (10-32 mM) ([1]; secondary agent 42 mM + Sulfosuccinic Acid 10-32 mM): 88%
- reduction in virus infectivity, in Combination with Maleic Acid (3 mM) ([1]; secondary agent 50 mM + Maleic Acid 3 mM): 0%
- reduction in virus infectivity, in Combination with Phosphonc Acid (50-150 mM) ([1]; secondary agent 50 mM + Phosphonc Acid 50-150 mM): 99%
- reduction in virus infectivity, in Combination with Sulfosuccinic Acid (10-32 mM) ([1]; secondary agent 50 mM + Sulfosuccinic Acid 10-32 mM): 50%
- reduction in virus infectivity, in Combination with Maleic Acid (3 mM) ([1]; secondary agent 67 mM + Maleic Acid 3 mM): 0%
- reduction in virus infectivity, in Combination with Phosphonc Acid (50-150 mM) ([1]; secondary agent 67 mM + Phosphonc Acid 50-150 mM): 99%
- reduction in virus infectivity, in Combination with Sulfosuccinic Acid (10-32 mM) ([1]; secondary agent 67 mM + Sulfosuccinic Acid 10-32 mM): 1%
